Where two headings read alike, the source gives them in different places.

What all share (type): cell-based
One assay has as its system Coriolus versicolor. Description: In vitro microtest of Coriolus versicolor. To be noted: 3 days incubation. The method, then: V.5. In vitro Microtest of Coriolus versicolor
(§1) The microtest was performed in liquid medium with potato-dextrose broth (PDB) using microtitre plates.
(§2) The active compound is applied as the technical active substance dissolved in methanol.
A mycelium suspension of Coriolus versicolor was used for inoculation. After 3 days of incubation by darkness under shaking (10 Hrz), the optical density in each cavity was evaluated with the aid of a microtitre plate reader. 0% means an efficacy which corresponds to that of the control, while an efficacy of 100% means that no fungal growth is observed.

Another assay concerns Botrytis cinerea. Description: In vitro microtest of Botrytis cinerea. The method, then:
V.9. In vitro microtest of Botrytis cinerea
as §1, §2
A spore suspension of Botrytis cinerea was used for inoculation. After 5 days (combination A2+B1), 4 days (combination A3+B3), or 7 days ( combination A5+B1) of incubation by darkness under shaking (10 Hrz), the optical density in each cavity was evaluated with the aid of a microtitre plate reader. 0% means an efficacy which corresponds to that of the control, while an efficacy of 100% means that no fungal growth is observed.

For the next assay, the system named is Rhizoctonia solani. Put plainly: In vitro microtest of Rhizoctonia solani. The method, then: V.10. In vitro Microtest of Rhizoctania solani
as §1, §2
A mycelium suspension of Rhizoctonia solani was used for inoculation. After 3 days (combinations A1+B3, A3+B2), 7 days (combination A2+B1), 4 days (combination A4+B2) or 5 days (combination A5+B1) of incubation by darkness under shaking (10 Hrz), the optical density in each cavity was evaluated with the aid of a microtitre plate reader.
0% means an efficacy which corresponds to that of the control, while an efficacy of 100% means that no fungal growth is observed.

Another assay relates to Phytophthora cryptogea. Description: In vitro microtest of Phytophthora cryptogea. To be noted: 3 ppm; 4 days incubation. The method, then:
V.11. In vitro Microtest of Phytophthora cryptogea
as §1, §2
A mycelium suspension of Phytophthora cryptogea was used for inoculation. After 4 days of incubation by darkness under shaking (10 Hrz), the optical density in each cavity was evaluated with the aid of a microtitre plate reader. 0% means an efficacy which corresponds to that of the control, while an efficacy of 100% means that no fungal growth is observed.

A further assay deals with Alternaria mali. Description: In vitro microtest of Alternaria mali. To be noted: 3 ppm; 4 days incubation. As to the method: V.6. In vitro Microtest of Alternaria mali
as §1
The active compound is applied as the technical active substance dissolved in methanol. A spore suspension of Alternaria mali was used for inoculation. After 4 days of incubation by darkness under shaking (10 Hrz), the optical density in each cavity was evaluated with the aid of a microtitre plate reader. 0% means an efficacy which corresponds to that of the control, while an efficacy of 100% means that no fungal growth is observed.

The test system of the next assay is Pyricularia oryzae.
For another assay, the system named is Gibberella zeae.
The next assay relates to Penicillium brevicaule. Put plainly: In vitro microtest of Penicillium brevicaule (optical density in PDB, microtitre plates). To be noted: 7 days incubation.
Another assay relates to Septoria tritici. Description: In vitro microtest of Septoria tritici. To be noted: 3 days incubation. The method, then: V.8. In vitro microtest of Septoria tritici
The microtest was performed in liquid medium with potato-dextrose broth (PDB) using microlitre plates.
The active compound is applied as the technical active substance dissolved in methanol. A spore suspension of Septoria tritici was used for inoculation. After 3 days of incubation by darkness under shaking (10 Hrz), the optical density in each cavity was evaluated with the aid of a microtitre plate reader. 0% means an efficacy which corresponds to that of the control, while an efficacy of 100% means that no fungal growth is observed.

The test system of a further assay is Ustilago avenae. Description: In vitro microtest of Ustilago avenae. To be noted: 1 ppm; 5 days incubation. As to the method:
V.12. In vitro Microtest of Ustilago avenae
as §1, §2
A spore suspension of Ustilago avenae was used for inoculation. After 5 days of incubation by darkness under shaking (10 Hrz), the optical density in each cavity was evaluated with the aid of a microtitre plate reader. 0% means an efficacy which corresponds to that of the control, while an efficacy of 100% means that no fungal growth is observed.

In the case of `OC(Cc1ccccc1Cl)(Cn1nc[nH]c1=S)C1(Cl)CC1` (centres unmarked) [A2, Prothioconazole], the Efficacy in % was found to be 48% with Coriolus versicolor (0.003 ppm); 40% with Botrytis cinerea (0.3 ppm, 5 days incubation); 50% in the assay on Rhizoctonia solani (0.1 ppm, 7 days incubation); 19% in the assay on Phytophthora cryptogea.
Consider `CC(C)(C)C(O)(CCc1ccc(Cl)cc1)Cn1cncn1` (centres unmarked) [A3, Tebuconazole], for which the Efficacy in % in the assay with Alternaria mali stood at 97%; with Pyricularia oryzae (0.3 ppm, 5 days incubation), 96%; with Botrytis cinerea (0.1 ppm, 4 days incubation) it was 33%; with Rhizoctonia solani (3 ppm, 3 days incubation) it was 47%; with Gibberella zeae (0.01 ppm, 3 days incubation) it was 9%.
Take `Cc1nn(C)c(F)c1C(=O)Nc1ccccc1C(C)CC(C)C` (centres unmarked) [A1, N-[2-(1,3-dimethylbutyl)phenyl]-5-fluoro-1,3-dimethyl-1H-pyrazole-4-carboxamide]: the Efficacy in % is given as 37% in the assay with Penicillium brevicaule (0.3 ppm); 97% with Coriolus versicolor (0.01 ppm); 4% with Septoria tritici (0.01 ppm); 79% in the assay on Rhizoctonia solani (0.003 ppm, 3 days incubation); 39% in the assay with Gibberella zeae (1 ppm, 4 days incubation).
For `CCCCCC/C=C\CCCOc1cccc(C(=O)N[C@@H]2C(O[C@H]3C(O)C(NC(C)=O)C(O[C@@H]4C(CO)O[C@@H](O[C@H]5C(O)C(NC(C)=O)C(OC6C(CO[C@@H]7OC(C)C(O)[C@H](O)[C@H]7OC)OC(O)[C@@H](NC(C)=O)[C@H]6O)O[C@H]5CO)[C@@H](NC(C)=O)C4O)O[C@H]3CO)OC(CO)[C@@H](O)[C@@H]2O)c1` (some centres unmarked) [B1], the Efficacy in % with Penicillium brevicaule (0.00003 ppm) was 0%; in the assay on Coriolus versicolor (0.000001 ppm), 22%; in the assay on Pyricularia oryzae (0.00001 ppm, 3 days incubation) it was 2%; with Pyricularia oryzae (0.00003 ppm, 5 days incubation), 5%; in the assay on Septoria tritici (0.000001 ppm), 1%; with Botrytis cinerea (0.00000003 ppm, 7 days incubation) it was 10%. Further, the Efficacy in % in the assay with Botrytis cinerea (0.00003 ppm, 5 days incubation) was determined as 18%; in the assay with Rhizoctonia solani (0.00000003 ppm, 5 days incubation), 41%; with Rhizoctonia solani (0.00001 ppm, 7 days incubation), 9%; in the assay on Gibberella zeae (0.000001 ppm, 3 days incubation), 4%; in the assay with Gibberella zeae (0.00001 ppm, 3 days incubation), 12%.
For `COCC(=O)N(c1c(C)cccc1C)C(C)C(=O)OC` (centres unmarked) [A5, Metalaxyl], the Efficacy in % is 4% in the assay on Botrytis cinerea (0.0003 ppm, 7 days incubation) and 80% in the assay on Rhizoctonia solani (0.0003 ppm, 5 days incubation).
Turning to `CON=C(C(=O)OC)c1ccccc1CON=C(C)c1cccc(C(F)(F)F)c1` [A4, Trifloxystrobin], the Efficacy in % is recorded as 63% with Pyricularia oryzae (0.1 ppm, 3 days incubation); 43% with Rhizoctonia solani (1 ppm, 4 days incubation); 92% in the assay with Ustilago avenae; 88% in the assay with Gibberella zeae (0.1 ppm, 3 days incubation); 75% in the assay with Gibberella zeae (1 ppm, 5 days incubation).

Source of the values: patent publication US8440591B2, “Pesticidal composition comprising synthetic compound useful as nodulation agent of leguminous plants and a fungicide compound” (Bayer Cropscience AG, priority 2006, dated 2013).
